Measurements reported in US7700644B2, “Isoflavonoid dimers” (Novogen Research Pty Ltd, priority 2005, dated 2010).

Legend:
PC3 (Prostate) = assay: In vitro cytotoxicity, MTT proliferation assay, PC3; type: cell-based, human; conditions: Homo sapiens
Method: (§1) The human pancreatic cancer cell line, HPAC (CRL-2119) was routinely cultured in 1:1 mixture DMEM (Sigma) plus Ham's F12 (Sigma) medium containing HEPES (15 mM), insulin (0.002 mg/ml), transferrin (0.005 mg/ml), hydrocortisone, (40 ng/ml), epidermal growth factor (10 ng/ml). The ovarian cancer cell line CP70 was obtained as a gift from Dr. Gil Mor (Yale University) and cultured in a 1:1 mixture DMEM plus Ham's F12 medium, and SKOV-3 was purchased from ATCC and cultured in McCoy's 5a medium. The breast cancer cell line MDA-MB-468 cultured in Leibovitz's L-15 medium.
(§2) All cultures were supplemented with 10% FCS(CSL, Australia), penicillin (100 U/ml), streptomycin ([…]), L-glutamine (2 mM) and sodium bicarbonate (1.2 g/L), and cultured at 37° C. in a humidified atmosphere of 5% CO2. All remaining cell lines were purchased from ATCC (Maryland, USA) except where noted.
(§3) IC50 values were determined for each cell line. Cells were seeded in 96-well plates at an appropriate cell density as determined from growth kinetics analysis. NFFs were cultured for 5 days and RK-13s for 24 hrs in the absence and presence of the test compounds. Cell proliferation was assessed after the addition of 20 μl of 3-4,5 dimethylthiazol-2,5-diphenyl tetrazolium bromide (MTT, 2.5 mg/ml in PBS, Sigma) for 3-4 hrs at 37° C. according to manufacturer's instructions. IC50 values were calculated from semi-log plots of % of control proliferation on the y-axis against log dose on the x-axis.

MM96L (Melanoma) = assay: In vitro cytotoxicity, MTT proliferation assay, MM96L; type: cell-based, human; conditions: Homo sapiens
Method: as §1, §2, §3

LNCaP (Prostate) = assay: In vitro cytotoxicity, MTT proliferation assay, LNCaP; type: cell-based, human; conditions: Homo sapiens
Method: as §1, §2, §3

TXB2 = TXB2 in murine macrophages (RAW 264.7) stimulated with LPS; type: cell-based, mouse; conditions: RAW 264.7, LPS 50 ng/ml, 16 hrs, dose responsive
Method: The mouse macrophage cell line RAW 264.7 was cultured in DMEM supplemented with FCS, 2 mM glutamine and 50 U/ml penicillin/streptomycin. Subconfluent cells were detached from the flask by gentle scraping and 24-well plates seeded at 5×10^5 cells per well and allowed to adhere for 1 hr. Cells were then treated either test compounds (in 0.025% DMSO) or vehicle alone, and incubated for 1 hr. LPS 50 ng/ml (LPS —Sigma-Aldrich) was then added. After incubation for 16 hrs, culture media was collected and stored at −80° C. for ecosanoid and cytokine measurements using enzyme immunometric assays (PGE2 and TXB2—Cayman Chemical and TNFα—Becton Dickinson).

NCI-H23 (Lung) = assay: In vitro cytotoxicity, MTT proliferation assay, NCI-H23; type: cell-based; conditions: Homo sapiens
Method: as §1, §2
as §3, with “NFFs were cultured for 5 days and RK-13s for 24 hrs in the absence and presence of the test compounds.” left out

splenocytes = assay: Murine splenocyte proliferation with mitogens (MTT), 3 day incubation with compound; type: cell-based, Male Skh-1 (hairless) mice
Method: Male Skh-1 (hairless) mice, six weeks old were killed by cervical dislocation. Single cell suspensions were made from their spleens and erythrocytes were lysed in buffer (0.14M NH4Cl, 17 mM Tris, pH 7.2). The remaining splenocytes were cultured in RPMI-1640 (Gibco) supplemented with 10% (v:v) FBS, 200 mM L-glutamine, penicillin/streptomycin and […] 2-mercaptoethanol. […] Samples were analysed after a 3 day incubation at 37° C. in 5% CO2 in air. To assess cell numbers, methylthiazoletetrazolium (MTT) was added to each well, incubated for a further 4 hrs and then colour developed with 0.04N HCl in isopropanol (Mosmann 1983). Plates were read at 570 nm and 630 nm. The compounds were examined several times using different mice. For each assay, the effect of test compound was compared with that of vehicle control, and the results compared using a student's t test (Prism). Statistically significant difference was determined to have occurred when p<0.05.

HT-29 (Colorectal) = assay: In vitro cytotoxicity, MTT proliferation assay, HT-29; type: cell-based, human; conditions: Homo sapiens; Colorectal HT-29
Method: as §1, §2, §3

[1] = Toxicity study, i/p administration in mice; type: in vivo; conditions: 50 mg/kg i/p daily
Method: In a small study, BALB/cnu/nu mice were administered with either Compound 2 (n=2) as a solution in 6% Tween 20:PBS at 50 mg/kg or an equivalent volume of vehicle (n=2), by i/p injection. Mice were weighed and observed for signs of toxicity daily using clinical monitoring sheets. On day 9, mice were killed by cervical dislocation, and the kidney, spleen and liver of each mouse were collected for histological assessment of toxicity.

PGE2 synthesis = PGE2 synthesis in human monocytes incubated with LPS; type: cell-based; conditions: LPS 200 ng/mL, 18 hrs, dose responsive
Method: Human peripheral blood monocytes (from three separate individuals) were isolated from buffy coats by lymphoprep gradient separation of mononuclear cells followed by counter-current centrifugal elutriation (Demasi et al. 2000). The test compounds were dissolved in DMSO and added to fresh monocytes After 30 min, LPS was added to achieve a final concentration of 200 ng/mL. After incubation for 18 hrs at 37° C. in 5% CO2, supernatants were removed and PGE2, TXB2 (the stable hydrolysis product of TXA2) and TNFα production were measured by radioimmunoassay (RIA).

[2] = Oral pharmacokinetics in mice; type: in vivo, female BALB/c mice; conditions: 50 mg/kg
Method: 4,9-Dihydroxy-14,15-dimethoxy-12a-(3′,4′-dimethoxyphenyl)-3,10-dimethyl-2,11-dioxa-(1H,12H)-6b,6c,12a,16b-tetrahydronaphtho[1,2-g]chrysene (2) from Example 6.1 was prepared as homogenous suspensions in 1% CMC (m:v, water). The Cpd. 2 formulation was delivered orally by gavage to female BALB/c mice at a dosage of 50 mg/kg. Three animals were allocated to each time point (15 min, 30 min, 1 hr, 4 hr and 24 hr). At each respective time point, animals were euthanased by cervical dislocation and blood collected. Free Cpd.

[3] = tested on: breast cancer cell line MDA-MB-468; assay: In vitro cytotoxicity, MTT proliferation assay, MDA-MB-468; type: cell-based, human; conditions: Homo sapiens; Breast MDA-MB-468
Method: as §1, §2, §3

[4] = tested on: ovarian cancer cell line CP70; assay: In vitro cytotoxicity, MTT proliferation assay, CP70; type: cell-based, human; conditions: Homo sapiens
Method: as §1, §2, §3

CCRF-CEM (Leukemic) = assay: In vitro cytotoxicity, MTT proliferation assay, CCRF-CEM; type: cell-based; conditions: Homo sapiens
Method: as §1, §2
as §3, with “NFFs were cultured for 5 days and RK-13s for 24 hrs in the absence and presence of the test compounds.” left out

Question: What does the source list for `COc1ccc(C23COc4c(ccc(O)c4C)C2C2c4ccc(O)c(C)c4OCC2c2cc(OC)c(OC)cc23)cc1OC` (stereo not shown) [Cpd. 2, 4,9-Dihydroxy-14,15-dimethoxy-12a-(3′,4′-dimethoxyphenyl)-3,10-dimethyl-2,11-dioxa-(1H,12H)-6b,6c,12a,16b-tetrahydronaphtho[1,2-g]chrysene]?
Answer: IC50 (PC3 (Prostate)): 7.36 ± 1.35 µM; IC50 (MM96L (Melanoma)): 6.8 µM; IC50 (LNCaP (Prostate)): 12 ± 4.3 µM; effect on TXB2 (TXB2): inhibited; IC50 (NCI-H23 (Lung)): 16.4 µM; effect on splenocyte proliferation (splenocytes; 10 μM, four different assays): no consistent trend; proliferation compared with vehicle control (splenocytes; higher concentrations (than 10 μM), regardless of mitogenic stimulation): reduced proliferation; IC50 (HT-29 (Colorectal)): 11.5 ± 6 µM; body weight gain vs vehicle ([1]; 9 days): no difference; clinical signs ([1]; 9 days): no abnormal clinical signs; histological assessment of toxicity (kidney, spleen, liver) ([1]; day 9): no histological evidence of toxicity; effect on PGE2 synthesis (PGE2 synthesis): induced; concentration at 15 min ([2]; female, BALB/c, mouse, blood, oral gavage, Time 0.25 (15 min), read-out: Free concentration in blood): 1.33 µM; concentration at 30 min ([2]; female, BALB/c, mouse, blood, oral gavage, Time 0.5 (30 min), read-out: Free concentration in blood): 4.93 µM; concentration at 1 h ([2]; female, BALB/c, mouse, blood, oral gavage, Time 1 (1 hr), read-out: Free concentration in blood): 6.76 µM; concentration at 4 h ([2]; female, BALB/c, mouse, blood, oral gavage, Time 4 (4 hr), read-out: Free concentration in blood): 6.31 µM; concentration at 24 h ([2]; female, BALB/c, mouse, blood, oral gavage, Time 24 (24 hr), read-out: Free concentration in blood): 1.15 µM; half-life compared to dehydroequol ([2]; oral): superior half-life at times up to 4 hours compared to dehydroequol; rate of conjugation compared to dehydroequol ([2]; oral): slow rate of conjugation compared to dehydroequol; IC50 [3]: 8.59 ± 0.35 µM; IC50 [4]: 8.23 ± 3.73 µM; IC50 (CCRF-CEM (Leukemic)): 10.3 ± 1.33 µM
